Values of other authors, collected in patent US20090036541A1, “Applicator and chemical combination for better topical anesthesia” (priority 2007, published 2009).

Details: compared with lidocaine

CCCCNc1ccc(C(=O)OCCN(C)C)cc1 [tetracaine]
potency relative to lidocaine: ten-fold
